Results from patent US20070197957A1, “Implantable sensors, implantable pumps and anti-scarring drug combinations” (priority 2005, published 2007).

What was measured:
C. glabrata = assay: antifungal activity against C. glabrata; assay type: cell-based
[1] = cited from earlier work; for solubility in alcohol / ethanol: alcohol or ethanol
[2] = potentiation of immunosuppressive agents
S. pyogenes C721 = assay: MIC by microtitre broth dilution; assay type: cell-based; details: Todd Hewitt broth, 37° C., 24 h, aerobic
Experimental: (§1) MIC assays were conducted essentially as described by Amsterdam, D. 1996, “Susceptibility testing of antimicrobials in liquid media”, p. 52-111, in Loman, V., ed. Antibiotics in laboratory medicine, 4th ed. Williams and Wilkins, Baltimore, Md.

[3] = system: P. aeruginosa PAE/K799 H187; assay: MIC by microtitre broth dilution; assay type: cell-based; details: Mueller Hinton broth, 37° C., 24 h, aerobic
Experimental: as §1

E. coli UB1005 C498 = assay: MIC by microtitre broth dilution; assay type: cell-based; details: Mueller Hinton broth, 37° C., 24 h, aerobic
Experimental: as §1

S. aureus ATCC25923 C622 = assay: MIC by microtitre broth dilution; assay type: cell-based; details: Mueller Hinton broth, 37° C., 24 h, aerobic
Experimental: as §1

S. epidermidis C621 = assay: MIC by microtitre broth dilution; assay type: cell-based; details: Mueller Hinton broth, 37° C., 24 h, aerobic
Experimental: as §1

[4] = system: K. pneumoniae ATCC13883 C238; assay: MIC by microtitre broth dilution; assay type: cell-based; details: Mueller Hinton broth, 37° C., 24 h, aerobic
Experimental: as §1

[5] = biological target: protein tyrosine phosphatase 1B (PTP1B) (Homo sapiens, UniProt P18031); details: cited from earlier work
Chain of protein tyrosine phosphatase 1B (PTP1B) (P18031 whole entry): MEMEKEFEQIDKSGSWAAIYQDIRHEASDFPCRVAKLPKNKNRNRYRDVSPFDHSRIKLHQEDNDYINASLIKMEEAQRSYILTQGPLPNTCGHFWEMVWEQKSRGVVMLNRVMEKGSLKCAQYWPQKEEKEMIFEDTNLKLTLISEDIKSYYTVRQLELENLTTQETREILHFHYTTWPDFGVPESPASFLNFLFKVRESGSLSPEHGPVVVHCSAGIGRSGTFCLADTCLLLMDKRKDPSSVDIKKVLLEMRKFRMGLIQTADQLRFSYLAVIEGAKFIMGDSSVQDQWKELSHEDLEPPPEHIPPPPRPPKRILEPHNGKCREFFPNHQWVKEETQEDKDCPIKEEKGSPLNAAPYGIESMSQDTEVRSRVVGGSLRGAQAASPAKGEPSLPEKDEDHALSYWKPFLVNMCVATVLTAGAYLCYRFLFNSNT

endo-exonuclease = details: cited from earlier work
[6] = system: phosphatases of regenerating liver (PRL); details: cited from earlier work

| Structure (SMILES) | Minimum inhibitory concentration, S. pyogenes C721 wt Gram+ (S. pyogenes C721) | Minimum inhibitory concentration, P. aeruginosa PAE/K799 H187 Wt Gram− [3] | Minimum inhibitory concentration, E. coli UB1005 C498 wt Gram− (E. coli UB1005 C498) | Minimum inhibitory concentration, S. aureus ATCC25923 C622 wt Gram+ (S. aureus ATCC25923 C622) | Minimum inhibitory concentration, S. epidermidis C621 wt Gram+ (S. epidermidis C621) | Minimum inhibitory concentration, K. pneumoniae ATCC13883 C238 wt Gram− [4] | also measured |
| --- | --- | --- | --- | --- | --- | --- | --- |
| CC[C@H](C)C[C@H](C)CCCCCCCCC(=O)N[C@H]1C[C@@H](O)[C@@H](NCCN)NC(=O)[C@@H]2[C@@H](O)CCN2C(=O)[C@H]([C@H](O)CCN)NC(=O)[C@H]([C@H](O)[C@@H](O)c2ccc(O)cc2)NC(=O)[C@@H]2C[C@@H](O)CN2C(=O)[C@H]([C@@H](C)O)NC1=O [caspofungin] |  |  |  |  |  |  | enhancement of antifungal activity by a manganese compound (C. glabrata): enhances |
| Nc1ccc(/N=N/c2ccccc2)c(N)n1 [Phenazopyridine, phenazopyridine] |  |  |  |  |  |  | solubility in alcohol / ethanol [1]: slightly soluble in water and alcohol; solubility in water ([1]; water): slightly soluble in water and alcohol |
| CCN(CC)C(C)CN1c2ccccc2Sc2ccccc21 (centres unmarked) [Ethopropazine, ethopropazine] |  |  |  |  |  |  | effect on potency of an immunosuppressive agent (e.g. cyclosporine) [2]: increases the potency |
| CCC(C)n1ncn(-c2ccc(N3CCN(c4ccc(OC[C@H]5CO[C@](Cn6cncn6)(c6ccc(Cl)cc6Cl)O5)cc4)CC3)cc2)c1=O (mixture of isomers) [itraconazole] |  |  |  |  |  |  | enhancement of antifungal activity by a manganese compound (C. glabrata): enhances |
| COc1cc([C@@H]2c3cc4c(cc3[C@@H](O[C@@H]3O[C@@H]5CO[C@@H](C)O[C@H]5[C@H](O)[C@H]3O)[C@H]3COC(=O)[C@H]23)OCO4)cc(OC)c1O [etoposide] | 10^−5 Molar | N | N | 10^−5 Molar | 10^−6 Molar | 10^−5 Molar |  |
| COc1cccc2c1C(=O)c1c(O)c3c(c(O)c1C2=O)C[C@@](O)(C(=O)CO)C[C@@H]3O[C@H]1C[C@H](N)[C@H](O)[C@H](C)O1 [doxorubicin] | 10^−7 Molar | 10^−5 Molar | 10^−4 Molar | 10^−5 Molar | 10^−6 Molar | 10^−6 Molar |  |
| O=C1c2c(O)ccc(O)c2C(=O)c2c(NCCNCCO)ccc(NCCNCCO)c21 [mitoxantrone] | 10^−6 Molar | 10^−5 Molar | 10^−5 Molar | 10^−5 Molar | 10^−5 Molar | 10^−6 Molar |  |
| Nc1ccn([C@@H]2O[C@H](CO)[C@@H](O)[C@@H]2O)c(=O)n1 [Cytarabine, cytarabine] | N | N | N | N | N | N |  |
| NC(=O)c1ncn([C@@H]2O[C@H](CO)[C@@H](O)[C@H]2O)n1 [Ribavirin, ribavirin] |  |  |  |  |  |  | solubility in alcohol / ethanol [1]: only slightly soluble |
| N=C(N)c1ccc(OCCCCCOc2ccc(C(=N)N)cc2)cc1 [pentamidine] |  |  |  |  |  |  | inhibition of PTP1B [5]: effective inhibitor; inhibition of endo-exonuclease activity (endo-exonuclease): inhibit; inhibition of oncogenic phosphatases of regenerating liver (PRL) [6]: potent inhibitor |
| CC[C@@]1(O)C(=O)OCc2c1cc1n(c2=O)Cc2cc3ccccc3nc2-1 [camptothecin] | N | N | N | N | 10^−4 Molar | N |  |
| N.N.[Cl][Pt][Cl] [cisplatin] | N | 10^−4 Molar | N | N | N | N |  |
| CN(C)C(=O)C(CCN1CCC(O)(c2ccc(Cl)cc2)CC1)(c1ccccc1)c1ccccc1 [Loperamide] |  |  |  |  |  |  | effect on potency of an immunosuppressive agent (e.g. cyclosporine) [2]: increase the potency |
| Sc1ncc2[nH]cnc2n1 [2-mercaptopurine] | N | N | N | N | N | N |  |
| CN(C/C=C/C#CC(C)(C)C)Cc1cccc2ccccc12.Cl [terbinafine] |  |  |  |  |  |  | enhancement of antifungal activity by a manganese compound (C. glabrata): enhances |
| NC(=O)NO [hydroxyurea] | 10^−4 Molar | 10^−4 Molar | N | N | N | N |  |
| Oc1cc(Cl)ccc1Oc1ccc(Cl)cc1Cl [triclosan] |  |  |  |  |  |  | effect on potency of an immunosuppressive agent (e.g. cyclosporine) [2]: increases the potency |
| O=c1[nH]cc(F)c(=O)[nH]1 [5-fluorouracil] | 10^−4 Molar | 10^−5 Molar | 10^−6 Molar | 10^−7 Molar | 10^−7 Molar | 10^−6 Molar |  |
| CNCCCC12CCC(c3ccccc31)c1ccccc12 [maprotiline] |  |  |  |  |  |  | effect on potency of an immunosuppressive agent (e.g. cyclosporine) [2]: increases the potency |
| OC(Cn1cncn1)(Cn1cncn1)c1ccc(F)cc1F [fluconazole] |  |  |  |  |  |  | enhancement of antifungal activity by a manganese compound (C. glabrata): enhances |
| Nc1ncnc2c1ccn2[C@@H]1O[C@H](CO)[C@@H](O)[C@H]1O [tubercidin] | N | N | N | N | N | N |  |
| CN(Cc1cnc2nc(N)nc(N)c2n1)c1ccc(C(=O)N[C@@H](CCC(=O)O)C(=O)O)cc1 [methotrexate] | 10^−6 Molar | N | N | 10^−5 Molar | N | 10^−6 Molar |  |
| Sc1ncnc2nc[nH]c12 [6-mercaptopurine] | N | N | N | N | N | N |  |
